The values that follow come from patent US10980808B2, “Calmodulin inhibitors, Chk2 inhibitors and RSK inhibitors for the treatment of ribosomal disorders and ribosomapathies” (THE CHILDREN'S MEDICAL CENTER CORPORATION, priority 2016, dated 2021).

Where a name gives a salt, the structure may show the parent alone.

One experiment deals with RSK1 (Homo sapiens, UniProt Q15418). As to conditions: in vitro; cited from earlier work.
The next experiment concerns the target RSK2 (Homo sapiens, UniProt P51812). As to conditions: in vitro; cited from earlier work.
For another experiment, the target named is RSK3 (Homo sapiens, UniProt Q15349). As to conditions: in vitro; cited from earlier work.
The target in another experiment is RSK4 (Homo sapiens, UniProt Q9UK32). The conditions noted are these: in vitro; cited from earlier work.
Experiment [1] deals with rps29−/− zebrafish embryos. The experiment in a line: hemoglobin (benzidine staining) rescue in rps29-/- zebrafish embryos. As to conditions: benzidine staining. It is filed as in vivo.
Another experiment deals with p70S6K (Homo sapiens, UniProt P23443). The experiment in a line: in vitro kinase profiling (Thermo Fisher SelectScreen), p70S6K. In kind it is biochemical. From the text: We asked if CaM and Chk2 inhibitors are blocking specific kinases. The known kinases that phosphorylate S392 are CK2 and p38. […] Thus, the question became what is TFP inhibiting upstream? Is it inhibiting a kinase that phosphorylates S392? We submitted CaM and Chk2 inhibitors for Kinase profiling using Thermo Fisher's SelectScreen.

In experiment [2] the test system is Chk2 activation in HT29 cells. The conditions noted are these: cited from earlier work.
The next experiment deals with mouse thymocytes. The conditions noted are these: cited from earlier work.
In the next experiment the test system is MEK. The conditions noted are these: upstream kinase; cited from earlier work.
A further experiment concerns Raf. The conditions noted are these: upstream kinase; cited from earlier work.
Another experiment concerns PKC. The conditions noted are these: upstream kinase; cited from earlier work.
Experiment [3] concerns rps29−/− zebrafish embryos. The conditions noted are these: previously demonstrated; cited from earlier work.
In experiment [4] the test system is calcium in lysates of RPS19 knocked down cells. The experiment in a line: colorimetric calcium detection in cellular lysates. It is filed as cell-based. From the text:
(§1) We hypothesize that the CaM inhibition is indirect, CaM is needed for calcium signaling. […] RSK inhibitor: SL and B1. P70s6K inhibitor: PF. In Summary we show: 1) CaM and Chk2 inhibitors reduce S392 phosphorylation of p53—to a much greater extent during ribosomal protein deficiency 2) CaM and Chk2 inhibitors also decrease P-p70S6K to a much greater extent during RP deficiency 3) p70S6K can directly phosphorylate p53 S392 in vitro 4) Total protein levels of RSK, p70S6K and rps6 are increased ruing RP deficiency in vitro and in vivo 5) RSK2 is increased in our microarray in […] vs WT 24 hpf embryos. Protein validates this upregulation 6) Calcium levels are increased during RP deficiency 7) Blocking the CaM-Calcium signaling (CaM inhibitors) or directly inhibiting RSK or p70S6K (Chk2 inhibitors) leads to a decrease in P-p53 and p53 activity. Reduced p53 activity leads to fewer RBCs undergoing apoptosis, alleviating the anemia.

Experiment [5] has as its system p70S6K and RPS6 phosphorylation in cells. Description: phosphorylation after calcium chelation in cells. As to conditions: chelating calcium in cells. It is filed as cell-based.
Text: as §1

Chain of p70S6K (P23443 whole entry): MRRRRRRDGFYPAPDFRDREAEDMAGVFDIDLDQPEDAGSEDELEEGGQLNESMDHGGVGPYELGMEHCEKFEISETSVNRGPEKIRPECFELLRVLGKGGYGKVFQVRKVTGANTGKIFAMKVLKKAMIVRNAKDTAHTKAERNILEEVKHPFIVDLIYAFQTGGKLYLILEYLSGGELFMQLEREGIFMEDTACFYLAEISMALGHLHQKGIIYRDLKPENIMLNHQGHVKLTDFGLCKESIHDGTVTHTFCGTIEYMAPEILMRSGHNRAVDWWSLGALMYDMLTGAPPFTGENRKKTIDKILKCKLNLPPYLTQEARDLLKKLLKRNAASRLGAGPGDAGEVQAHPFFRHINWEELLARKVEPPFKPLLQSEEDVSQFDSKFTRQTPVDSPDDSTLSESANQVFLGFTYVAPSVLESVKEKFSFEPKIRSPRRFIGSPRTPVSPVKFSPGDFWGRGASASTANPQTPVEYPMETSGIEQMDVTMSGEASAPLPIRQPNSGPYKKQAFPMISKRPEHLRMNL
Chain of RSK3 (Q15349 whole entry): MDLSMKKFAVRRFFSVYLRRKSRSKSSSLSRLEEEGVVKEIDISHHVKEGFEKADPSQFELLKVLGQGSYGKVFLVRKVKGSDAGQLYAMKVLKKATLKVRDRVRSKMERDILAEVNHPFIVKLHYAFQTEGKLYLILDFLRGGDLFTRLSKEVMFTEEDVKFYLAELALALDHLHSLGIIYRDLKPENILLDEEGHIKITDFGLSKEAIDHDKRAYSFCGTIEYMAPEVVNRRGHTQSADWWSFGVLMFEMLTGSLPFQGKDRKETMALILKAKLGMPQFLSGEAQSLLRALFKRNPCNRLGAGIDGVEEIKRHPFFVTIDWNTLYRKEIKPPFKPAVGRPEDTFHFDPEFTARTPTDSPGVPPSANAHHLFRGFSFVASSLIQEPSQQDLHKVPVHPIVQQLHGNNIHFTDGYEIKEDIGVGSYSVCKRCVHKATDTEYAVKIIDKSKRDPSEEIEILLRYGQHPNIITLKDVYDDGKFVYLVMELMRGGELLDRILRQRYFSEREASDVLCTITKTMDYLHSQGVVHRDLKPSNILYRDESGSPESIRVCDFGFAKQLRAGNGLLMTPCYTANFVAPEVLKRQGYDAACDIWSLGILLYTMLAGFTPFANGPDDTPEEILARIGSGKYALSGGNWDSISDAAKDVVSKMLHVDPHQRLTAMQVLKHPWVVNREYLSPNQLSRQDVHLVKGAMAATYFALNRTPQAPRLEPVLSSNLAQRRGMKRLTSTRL
Chain of RSK4 (Q9UK32 whole entry): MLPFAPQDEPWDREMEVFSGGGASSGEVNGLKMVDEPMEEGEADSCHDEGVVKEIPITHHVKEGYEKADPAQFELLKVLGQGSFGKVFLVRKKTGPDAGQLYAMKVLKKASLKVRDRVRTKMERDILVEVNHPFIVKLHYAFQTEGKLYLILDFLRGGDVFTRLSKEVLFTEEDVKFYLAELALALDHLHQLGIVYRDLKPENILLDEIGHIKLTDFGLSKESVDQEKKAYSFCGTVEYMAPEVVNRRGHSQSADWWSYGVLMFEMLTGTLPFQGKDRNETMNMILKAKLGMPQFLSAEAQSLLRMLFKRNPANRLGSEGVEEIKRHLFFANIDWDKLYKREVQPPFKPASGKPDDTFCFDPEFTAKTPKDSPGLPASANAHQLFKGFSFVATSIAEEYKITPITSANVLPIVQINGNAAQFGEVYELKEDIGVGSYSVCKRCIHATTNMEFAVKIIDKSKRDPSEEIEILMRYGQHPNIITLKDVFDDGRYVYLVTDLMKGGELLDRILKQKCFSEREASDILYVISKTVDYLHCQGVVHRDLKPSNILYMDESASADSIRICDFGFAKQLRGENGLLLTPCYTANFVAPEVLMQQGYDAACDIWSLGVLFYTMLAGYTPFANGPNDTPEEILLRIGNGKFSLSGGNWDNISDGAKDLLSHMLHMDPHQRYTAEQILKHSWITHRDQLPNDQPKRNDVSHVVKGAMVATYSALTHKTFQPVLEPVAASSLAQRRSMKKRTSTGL
Chain of RSK2 (P51812 whole entry): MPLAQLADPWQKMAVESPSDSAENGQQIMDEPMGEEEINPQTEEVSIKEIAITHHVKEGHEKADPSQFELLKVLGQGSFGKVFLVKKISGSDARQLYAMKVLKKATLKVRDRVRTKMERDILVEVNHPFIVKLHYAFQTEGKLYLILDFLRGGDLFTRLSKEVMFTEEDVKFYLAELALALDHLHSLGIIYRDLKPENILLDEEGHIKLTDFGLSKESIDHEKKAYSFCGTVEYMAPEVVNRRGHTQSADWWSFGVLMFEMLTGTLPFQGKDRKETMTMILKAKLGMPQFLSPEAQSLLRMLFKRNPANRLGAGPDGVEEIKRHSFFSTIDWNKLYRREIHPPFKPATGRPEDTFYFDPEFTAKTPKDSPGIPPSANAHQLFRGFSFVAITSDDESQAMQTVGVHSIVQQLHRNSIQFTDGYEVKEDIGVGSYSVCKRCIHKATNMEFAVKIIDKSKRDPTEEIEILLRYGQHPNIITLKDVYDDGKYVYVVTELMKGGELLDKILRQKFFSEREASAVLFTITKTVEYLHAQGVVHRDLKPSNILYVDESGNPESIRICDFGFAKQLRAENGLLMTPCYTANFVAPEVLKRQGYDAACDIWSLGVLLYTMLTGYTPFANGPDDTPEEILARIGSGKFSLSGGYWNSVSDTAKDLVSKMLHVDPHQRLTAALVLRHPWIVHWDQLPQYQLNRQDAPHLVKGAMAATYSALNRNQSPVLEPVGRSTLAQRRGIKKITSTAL
Chain of RSK1 (Q15418 whole entry): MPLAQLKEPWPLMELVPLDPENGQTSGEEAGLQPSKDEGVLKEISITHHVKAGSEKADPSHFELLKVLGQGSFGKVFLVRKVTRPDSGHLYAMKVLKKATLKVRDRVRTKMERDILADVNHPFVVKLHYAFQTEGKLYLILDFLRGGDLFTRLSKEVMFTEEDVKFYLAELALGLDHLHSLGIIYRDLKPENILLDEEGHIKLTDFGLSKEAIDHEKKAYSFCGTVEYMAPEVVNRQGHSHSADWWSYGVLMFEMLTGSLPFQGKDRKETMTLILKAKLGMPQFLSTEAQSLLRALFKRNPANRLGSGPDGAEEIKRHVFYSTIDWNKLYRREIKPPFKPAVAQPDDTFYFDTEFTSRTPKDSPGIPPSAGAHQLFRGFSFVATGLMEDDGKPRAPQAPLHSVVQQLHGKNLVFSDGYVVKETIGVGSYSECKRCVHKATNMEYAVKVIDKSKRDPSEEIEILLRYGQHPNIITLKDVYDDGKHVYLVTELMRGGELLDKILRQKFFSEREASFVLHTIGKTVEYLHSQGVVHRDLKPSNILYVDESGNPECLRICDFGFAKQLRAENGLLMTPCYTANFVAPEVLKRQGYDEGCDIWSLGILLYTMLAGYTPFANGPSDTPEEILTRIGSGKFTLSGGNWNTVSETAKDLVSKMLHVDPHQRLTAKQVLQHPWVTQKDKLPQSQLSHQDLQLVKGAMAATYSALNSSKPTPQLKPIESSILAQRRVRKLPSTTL

In general, IC50 refers to the concentration that inhibits the measured activity by half. For the molecule `CC(C)CCC1c2nc(Nc3cc(F)c(O)c(F)c3)ncc2N(C)C(=O)C1C` (stereo not shown) [BI-D1870], the IC50 on RSK1 is 31 nM; at RSK2 it was 24 nM; at RSK3, 18 nM; at RSK4 it was 15 nM.
As to `COc1cc2nc(-c3cc(F)ccc3O)nc(NC3CNC[C@H]3C(C)(C)O)c2cc1OC` (stereo partly shown) [CCT, CCT 241533 dihydrochloride], the “hemoglobin (Hb) in rps29−/− embryos” value in experiment [1] (dihydrochloride) is on record as “rescue Hb”. Also, on p70S6K, the “percent inhibition of in vitro kinase activity, p70S6K” value was “inhibition”. For the same molecule, the “Chk2 activation in response to etoposide-induced DNA damage” value in experiment [2] is “inhibits”. Moreover, the ionizing radiation-induced apoptosis entry in the experiment with mouse thymocytes is recorded as “blocks”.
As to “3-[(3,4-Di-O-acetyl-6-deoxy-α-L-mannopyranosyl)oxy]-5,7-dihydro-2-(4-hydroxyphenyl)-4H-1benzopyran-4-one [SL]”, the “hemoglobin (Hb) in rps29−/− embryos” value in experiment [1] is reported as “increase Hb”. For the same molecule, the “inhibition of MEK” value with MEK is on record as “Does not inhibit”. In addition, the “inhibition of Raf” value in the experiment with Raf is given as “Does not inhibit”. Besides, in the experiment on PKC, the “inhibition of PKC” value is “Does not inhibit”.
With `NCCCCCCNS(=O)(=O)c1cccc2ccccc12` [W-5], the “rescue of the vasculature defect” value in [3] is recorded as “rescue the vasculature defect”.
Take `CC(=O)OCOC(=O)CN(CC(=O)OCOC(C)=O)c1ccccc1OCCOc1ccccc1N(CC(=O)OCOC(C)=O)CC(=O)OCOC(C)=O` [BAPTA-AM]: in experiment [4], the “calcium levels in cellular lysates” value is listed as “reduce the calcium levels”. For the same molecule, in [5], the RPS6 phosphorylation result is recorded as “reduces” and the p70S6K phosphorylation entry is “reduces”.
